Laboratory results from patent US20030185914A1, “Process for isolating artemisinin from artemisia annua” (priority 2002, published 2003).

Experiment: Partitioning of pure artemisinin between hexane and aqueous ethanol (1:1 v/v), layers quantified by TLC
Format: physicochemical
Description: To select an efficient solvent for extraction of artemisinin different solvents systems were tested. For this 10 g of dry powdered leaves of Artemisia annua were extracted with methanol, 20% aqueous methanol, ethanol, 20% aqueous ethanol or hexane as a solvent individually in separate tubes. 10 ml of the solvent was taken out of the tube at 2, 4 and 6 h of incubation. The fraction was evaporated to dryness on a water bath, extract was solubilized in 2.0 ml solvent and spots (5 μl) were loaded on a TLC plate along with pure artemisinin dissolved in the respective solvent @ 1 mg/ml taken as controls. The TLC was carried out in a glass TLC tank saturated with the mobile phase hexane:diethyl ether (1:1), plates were developed to a height of 15 cm. Later plates were dried and spots were visualized by immersing the plates in a developing reagent (glacial acetic acid:sulfuric acid:anisaldehyde, 50:1:0.5), followed by heating the plate at 110° C. for 15 minutes or until pink spots of artemisinin appeared. For quantification, TLC spots corresponding to artemisinin were scanned at 540 and 610 nm dual wavelength mode of TLC scanner. It is clear from the table that pure ethanol and methanol rapidly extract the artemisinin as compared to hexane, however after a certain period of time concentration of artemisinin starts diminishing in methanol and ethanol extracts in contrast to hexane extract possibly because of decomposition or transformation of artemisinin into another unknown compound. Mixing of water in methanol caused a severe decay of artemisinin extraction. Ethanol was more efficient for extracting more artemisinin in less time period as compared to methanol and hexane both. On the basis of lower cost and rapid extraction efficiency ethanol will be a suitable solvent.
Pure artemisinin (0.2 g) was dissolved in different test tubes containing 1:1 (v/v) mixture of two non-miscible solvents, hexane and aqueous ethanol (i.e. ethanol mixed in water), where concentration of ethanol varied from 20 to 80%. After completely solubilizing the artemisinin in the mixture, two layers of hexane and ethanol were separated with the help of a separating funnel. The individual layer from different test tube was tested for the presence of artemisinin content by TLC as in example 1. The results showing the % fraction of artemisinin partitioned between the hexane and aqueous ethanolic layers separated from each tube are given in the Table -2.

[1] = Hexane:20% aqueous-ethanol (1:1 v/v)
[2] = Hexane:40% aqueous-ethanol (1:1 v/v)
[3] = Hexane:60% aqueous-ethanol (1:1 v/v)
[4] = Hexane:80% aqueous-ethanol (1:1 v/v)

## C[C@@H]1CC[C@H]2[C@@H](C)C(=O)O[C@@H]3O[C@@]4(C)CC[C@@H]1[C@]32OO4 [artemisinin]
[1]
  % artemisinin in ethanol layer: 100%
  % artemisinin in hexane layer: 0%
[2]
  % artemisinin in ethanol layer: 90%
  % artemisinin in hexane layer: 10%
[3]
  % artemisinin in ethanol layer: 30%
  % artemisinin in hexane layer: 70%
[4]
  % artemisinin in ethanol layer: 0%
  % artemisinin in hexane layer: 100%
